From US7638509B2, “Diene compounds and formulations” (priority 2003, dated 2009)

Assays:
[1] = biological target: T1, AR with coactivator ARA70 (Homo sapiens, UniProt P10275); assay: ARA70 enhancement of AR transactivation, MMTV-Luc in DU145 cells with pSG5-AR and pSG5-ARA70; assay type: cell-based; details: DU145, pSG5-AR + MMTV-Luc with or without pSG5-ARA70
T1 construct: expressed in transfected cells; host or cells: DU145
T1 sequence (P10275 1-920): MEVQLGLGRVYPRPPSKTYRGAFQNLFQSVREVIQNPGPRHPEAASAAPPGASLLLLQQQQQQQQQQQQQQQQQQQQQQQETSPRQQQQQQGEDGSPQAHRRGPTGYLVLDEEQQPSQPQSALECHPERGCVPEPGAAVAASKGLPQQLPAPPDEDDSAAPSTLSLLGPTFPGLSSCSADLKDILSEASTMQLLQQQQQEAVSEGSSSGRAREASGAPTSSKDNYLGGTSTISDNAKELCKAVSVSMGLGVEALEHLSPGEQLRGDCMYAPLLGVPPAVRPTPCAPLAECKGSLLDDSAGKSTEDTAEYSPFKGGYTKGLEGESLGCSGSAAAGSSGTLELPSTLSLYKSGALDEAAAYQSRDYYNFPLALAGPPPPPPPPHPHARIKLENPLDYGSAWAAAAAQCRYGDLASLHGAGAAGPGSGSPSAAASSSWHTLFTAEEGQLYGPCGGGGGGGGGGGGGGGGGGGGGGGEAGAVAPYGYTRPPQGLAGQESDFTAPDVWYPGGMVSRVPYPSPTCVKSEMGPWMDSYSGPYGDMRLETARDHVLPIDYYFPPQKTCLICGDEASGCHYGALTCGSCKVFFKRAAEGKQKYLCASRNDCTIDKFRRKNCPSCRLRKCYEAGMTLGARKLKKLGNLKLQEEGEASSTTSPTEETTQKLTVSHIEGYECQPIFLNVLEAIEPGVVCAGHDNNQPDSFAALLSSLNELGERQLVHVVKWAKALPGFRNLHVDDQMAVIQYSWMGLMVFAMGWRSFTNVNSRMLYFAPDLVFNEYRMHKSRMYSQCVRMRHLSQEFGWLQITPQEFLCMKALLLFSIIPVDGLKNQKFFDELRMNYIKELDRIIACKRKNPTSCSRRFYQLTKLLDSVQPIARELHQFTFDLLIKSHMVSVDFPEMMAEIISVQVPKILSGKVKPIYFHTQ
Protocol: Cell Culture, Transfection, and Reporter Gene Assay. The human prostate cancer cell lines, LNCaP, PC-3, and DU145, and non-prostate cancer cell line COS-1 were maintained in RPMI or Dulbecco's modified Eagle's medium (DMEM) (Life Technologies) supplemented with 10% fetal bovine serum (FBS). Transfections and luciferase (Luc) assays were performed as previously described (Miyamoto, H., Yeh, S., Wilding, G. & Chang, C. (1998) Proc. Natl. Acad. Sci. USA 95, 7379-7384; Miyamoto, H., Rahman, M., Takatera, H., Kang, H.-Y., Yeh, S., Chang, H.-C., Nishimura, K., Fujimoto, N. & Chang, C. (2002) J. Biol. Chem. 277, 4609-4617). Briefly, cells seeded to reach a density of 50-60% confluence in 12 well tissue culture plates were transfected with 1.5 μg of DNA according to “SuperFect transfection” instructions (Qiagen). After 2-3 h incubation, cells were treated with medium supplemented with charcoal-stripped FBS containing either ethanol or ligands for 24 h. The cells were then harvested and whole cell extracts were used for Luc assay. The Luc activity was determined using a Dual-Luciferase Reporter Assay System (Promega) and luminometer.
The effects of ADEK on the DHT-induced transcriptional activity of AR was examined in COS-1 or LNCaP cells transfected with MMTV-Luc. The pSG5-AR was co-transfected in COS-1 cells. […] Values were obtained from the mean±SD of at least three determinations. […]

[2] = biological target: T2, progesterone receptor (PR) (Homo sapiens, UniProt P06401); assay: Steroid hormone specificity, PR/MMTV-Luc in PC-3 cells; assay type: cell-based; details: PC-3, PR/MMTV-Luc, ADEK at 0.01 mM, 0.1 mM and 1.0 mM, 24 h
T2 construct: expressed in transfected cells; host or cells: PC-3
T2 sequence (P06401 1-933): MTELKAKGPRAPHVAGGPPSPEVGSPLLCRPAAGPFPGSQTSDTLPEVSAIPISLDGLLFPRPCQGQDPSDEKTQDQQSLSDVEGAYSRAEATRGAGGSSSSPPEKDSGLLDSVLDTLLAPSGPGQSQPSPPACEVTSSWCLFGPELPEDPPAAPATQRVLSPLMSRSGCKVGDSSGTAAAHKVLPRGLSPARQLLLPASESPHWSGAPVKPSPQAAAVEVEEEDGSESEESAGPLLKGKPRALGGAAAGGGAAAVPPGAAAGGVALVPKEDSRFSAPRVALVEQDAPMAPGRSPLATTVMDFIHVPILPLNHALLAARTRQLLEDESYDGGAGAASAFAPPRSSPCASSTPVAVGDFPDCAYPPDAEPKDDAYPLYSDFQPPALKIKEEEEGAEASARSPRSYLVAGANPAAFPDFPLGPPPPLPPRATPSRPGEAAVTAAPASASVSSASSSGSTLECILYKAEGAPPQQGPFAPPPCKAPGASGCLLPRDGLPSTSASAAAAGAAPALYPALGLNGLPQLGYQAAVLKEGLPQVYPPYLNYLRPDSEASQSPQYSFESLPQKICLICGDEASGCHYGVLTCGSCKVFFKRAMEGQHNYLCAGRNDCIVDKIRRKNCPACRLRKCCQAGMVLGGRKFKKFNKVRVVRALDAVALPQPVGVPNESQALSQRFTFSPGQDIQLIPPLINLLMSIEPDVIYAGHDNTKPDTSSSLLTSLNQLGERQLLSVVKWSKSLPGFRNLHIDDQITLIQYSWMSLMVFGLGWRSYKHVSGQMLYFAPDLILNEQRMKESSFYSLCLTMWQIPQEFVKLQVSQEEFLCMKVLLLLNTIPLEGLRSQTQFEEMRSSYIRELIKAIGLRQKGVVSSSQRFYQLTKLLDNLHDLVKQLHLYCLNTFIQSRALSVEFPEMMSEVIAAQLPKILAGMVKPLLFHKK
Protocol: Cell Culture, Transfection, and Reporter Gene Assay. The human prostate cancer cell lines, LNCaP, PC-3, and DU145, and non-prostate cancer cell line COS-1 were maintained in RPMI or Dulbecco's modified Eagle's medium (DMEM) (Life Technologies) supplemented with 10% fetal bovine serum (FBS). Transfections and luciferase (Luc) assays were performed as previously described (Miyamoto, H., Yeh, S., Wilding, G. & Chang, C. (1998) Proc. Natl. Acad. Sci. USA 95, 7379-7384; Miyamoto, H., Rahman, M., Takatera, H., Kang, H.-Y., Yeh, S., Chang, H.-C., Nishimura, K., Fujimoto, N. & Chang, C. (2002) J. Biol. Chem. 277, 4609-4617). Briefly, cells seeded to reach a density of 50-60% confluence in 12 well tissue culture plates were transfected with 1.5 μg of DNA according to “SuperFect transfection” instructions (Qiagen). […] The Luc activity was determined using a Dual-Luciferase Reporter Assay System (Promega) and luminometer.
Steroid Hormone Specificity of ADEK. To characterize the steroid hormone activity of ADEK, PC-3 cells were transfected with steroid receptor/reporter (progesterone receptor (PR)/MMTV-Luc, glucocorticoid receptor (GR)/MMTV-Luc, or estrogen receptor (ER)/ERE-Luc) and analyzed for expression of the Luc reporter gene. […] The Luc activity was measured relative to that of ETOH treatment (set as 1-fold). […]

Compound: CC(=O)O[C@H]1C=C[C@@]2(C)C(=CC[C@@H]3[C@@H]2CC[C@@]2(C)[C@H]3CCC23OCCO3)C1 [ADEK, 3β-acetoxy-17,17-ethylenedioxyandrosta-1,5-diene]
- enhancement of AR transactivation by ARA70 in the presence of compound [1]: < 2 fold
- progesterone activity (in words) [2]: no significant
